Experimental findings from ChEMBL document CHEMBL1201862, “PubChem BioAssay data set” (2004) are described below.

A short description of experiment [1]: A Cell Based Secondary Assay To Explore Cytotoxicity of Compounds that Sensitize Mycobacterium Tuberculosis to Beta-Lactam Antibiotics. Format: functional.
Experiment [2] concerns the target Heat shock protein HSP 90-alpha (Homo sapiens, UniProt P07900). It counts as functional, organism-based.
Experiment [3] can be described thus: HIV-1 AD8 envelope cell-cell fusion blockers – cherry-pick, dose response (AID 652062).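 Further: luciferase signal from cell-cell fusion driven by HIV-1 clade B AD8 Env; potency is for inhibitors of fusion seen as a drop in luminescence.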 Format: functional, cell-based.
The nature of experiment [4]: HEK-293T viability loss after treatment – luminescence, T-cell screen hits, cytotoxicity control for TCR NF-kB inhibitor project, dose response (AID 489026).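 Further: cells exposed to compound about 14 hours before the viability readout.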 It counts as functional, cell-based.
For experiment [5], the target named is T1, RNA-binding protein pos-1 (Caenorhabditis elegans, UniProt G5EF15).
T1 sequence (G5EF15 whole entry): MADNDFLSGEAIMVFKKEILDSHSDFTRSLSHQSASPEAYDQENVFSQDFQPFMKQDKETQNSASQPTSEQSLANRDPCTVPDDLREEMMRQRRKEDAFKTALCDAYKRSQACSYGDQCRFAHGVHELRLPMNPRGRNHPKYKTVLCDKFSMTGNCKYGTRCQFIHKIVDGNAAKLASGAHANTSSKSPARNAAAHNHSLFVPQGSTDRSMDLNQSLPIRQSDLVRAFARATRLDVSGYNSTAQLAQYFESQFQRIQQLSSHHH
The experiment in a line: disruptors of C. elegans POS-1 RNA interaction – biochemical, fluorescence polarization, dose response (AID 1964).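 Further: purified POS-1 fused to maltose binding protein made in E. coli; potency of compounds blocking POS-1 binding to fluorescent RNA.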

Experiment [6] has as its target T2, Zinc finger protein mex-5 (Caenorhabditis elegans, UniProt Q9XUB2).
T2 sequence (Q9XUB2 whole entry): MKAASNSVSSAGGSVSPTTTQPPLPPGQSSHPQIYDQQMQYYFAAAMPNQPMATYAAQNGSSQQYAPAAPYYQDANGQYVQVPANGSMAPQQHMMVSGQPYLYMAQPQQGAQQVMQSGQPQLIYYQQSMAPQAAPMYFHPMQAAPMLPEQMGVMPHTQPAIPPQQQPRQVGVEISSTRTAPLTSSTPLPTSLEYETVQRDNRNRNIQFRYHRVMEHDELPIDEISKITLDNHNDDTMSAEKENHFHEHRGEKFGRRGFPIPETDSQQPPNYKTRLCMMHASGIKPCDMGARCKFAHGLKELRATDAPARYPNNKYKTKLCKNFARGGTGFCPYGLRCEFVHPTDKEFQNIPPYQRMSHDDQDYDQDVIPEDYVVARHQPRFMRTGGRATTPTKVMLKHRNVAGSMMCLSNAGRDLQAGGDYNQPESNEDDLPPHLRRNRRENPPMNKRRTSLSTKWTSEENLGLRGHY
As to the kind of experiment: potency of MEX-5 RNA-binding blockers – biochemical, C. elegans, fluorescence polarization, dose response (AID 1960).

Experiment [7] has as its target Eukaryotic translation initiation factor 4E (Mus musculus, UniProt P63073). As to the kind of experiment: blockers of eIF4G binding by eIF4E – biochemical, TR-FRET, dose response (AID 855).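 Further: potency for disrupting eIF4E binding to eIF4GI seen as loss of FRET.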 Format: functional.
Experiment [8] has as its target T3, Carboxy-terminal domain RNA polymerase II polypeptide A small phosphatase 1 (Homo sapiens, UniProt Q9GZU7).
T3 sequence (Q9GZU7 whole entry): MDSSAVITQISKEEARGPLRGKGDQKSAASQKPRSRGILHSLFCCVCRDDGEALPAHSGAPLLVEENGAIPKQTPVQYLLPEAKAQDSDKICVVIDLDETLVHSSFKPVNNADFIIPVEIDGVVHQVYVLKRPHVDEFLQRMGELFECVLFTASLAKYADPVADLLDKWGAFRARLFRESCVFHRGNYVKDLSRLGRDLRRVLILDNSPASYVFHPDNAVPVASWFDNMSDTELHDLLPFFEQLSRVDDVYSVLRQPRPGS
As to the kind of experiment: CTDSP1 inhibitors, concentration-response, biochemical, absorbance readout, ultra-high-throughput screen actives (AID 540297). Format: functional.

In a further experiment the test system is Vero. As to the kind of experiment: viability of Vero cells under compound – cytotoxicity control for flavivirus capping enzyme inhibitors (AID 588742). Format: functional. Conditions: Chlorocebus sabaeus.
Experiment [9] in a line: viability of PTEN-deleted HCT116 cells – cell-based, HCT116 PTEN knockout, dose response (AID 1047).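 Further: HCT116 colon tumor cells with PTEN knocked out; cells exposed to compound for 60 hours before readout; potency for loss of cell viability measured by luminescence.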 It counts as functional.
The nature of experiment [10]: viability of HCT116 lacking mutant beta-catenin – cell-based, human colon tumor, dose response (AID 1045).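 Further: HCT116 colon tumor cells with beta catenin knocked out; cells exposed to compound for 60 hours.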 It counts as functional.
Experiment [11] can be described thus: alpha-synuclein stem-loop luciferase translation blockers – H4 neuroglioma cells, luminescence, confirmation (AID 1988). It counts as functional, cell-based.
Experiment [12] in a line: Luminescence Cell-Based Dose Response HTS to Identify Inhibitors of 5'UTR Stem-Loop Driven Prion Protein mRNA Translation in H4 Neuroglioblastoma Cells. [Related pubchem assays: 1827 (Project Summary), 1813 (Primary HTS)]. Format: functional.
Experiment [13] can be described thus: luciferase reporter signal suppression in cells – H4 neuroglioma cells, luminescence, dose response (AID 1990). It counts as functional, cell-based.
Experiment [14] is described as follows: Luminescence Cell-Based Dose Retest to Confirm Inhibitors of Cancer Stem Cells. [Related pubchem assays (depositor defined):AID2717, AID2721]. It counts as functional. Particulars: Homo sapiens.
Experiment [15] is described as follows: blockers of bursicon-stimulated LGR2 cAMP reporter – cell-based, HEK293, CRE-luciferase reporter, cherry pick, set 2, dose response (AID 743343).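 Further: transfected cells were stimulated with diluted bursicon conditioned medium after compound addition.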 It counts as functional.
A short description of experiment [16]: A549 cell cytotoxicity, dose response, cytotoxicity control, plate reader, cherry-pick, antagonist series (AID 743412). Format: functional, cell-based.
The nature of experiment [17]: blockade of melanocortin 4 receptor signaling – cell-based, plate reader, cherry pick, counter-screen for LGR2 antagonist project, dose response (AID 743444).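 Further: transfected HEK 293 cells stimulated with alpha-MSH peptide; potency of inhibitors of the alpha-MSH evoked signal.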 It counts as functional.
In another experiment the target is Cytochrome P450 2C19 (Homo sapiens, UniProt P33261). As to the kind of experiment: Cytochrome panel assay with activity outcomes. Panel member name: p450-cyp2c19 Compounds with AC50 equal or less than 10 uM are considered active. Conditions: read-out: AC50. It counts as functional.

Activity calls are given as the source filed them.

Eukaryotic translation initiation factor 4E, sequence (P63073 whole entry, the tested form may be a part): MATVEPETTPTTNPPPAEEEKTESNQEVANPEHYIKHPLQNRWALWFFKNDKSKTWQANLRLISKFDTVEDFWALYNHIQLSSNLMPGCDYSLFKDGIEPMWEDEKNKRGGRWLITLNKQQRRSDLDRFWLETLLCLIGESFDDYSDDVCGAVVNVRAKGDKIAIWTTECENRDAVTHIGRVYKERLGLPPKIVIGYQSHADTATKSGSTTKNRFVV
Cytochrome P450 2C19, sequence (P33261 whole entry): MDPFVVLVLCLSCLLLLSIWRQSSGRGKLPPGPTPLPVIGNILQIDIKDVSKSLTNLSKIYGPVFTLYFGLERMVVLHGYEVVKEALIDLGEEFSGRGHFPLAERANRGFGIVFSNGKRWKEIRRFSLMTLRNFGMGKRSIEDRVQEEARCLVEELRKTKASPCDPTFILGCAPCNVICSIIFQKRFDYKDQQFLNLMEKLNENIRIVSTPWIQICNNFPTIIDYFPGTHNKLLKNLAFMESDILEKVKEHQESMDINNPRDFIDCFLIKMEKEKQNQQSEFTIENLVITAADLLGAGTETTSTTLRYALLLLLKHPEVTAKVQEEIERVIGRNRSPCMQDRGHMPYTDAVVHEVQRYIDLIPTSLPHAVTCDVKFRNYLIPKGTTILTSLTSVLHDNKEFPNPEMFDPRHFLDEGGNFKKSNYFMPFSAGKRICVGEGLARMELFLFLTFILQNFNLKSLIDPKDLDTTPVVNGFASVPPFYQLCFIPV

On to `CC1CCCN(S(=O)(=O)c2ccc(C(=O)Nc3nnc(-c4ccncc4)o3)cc2)C1` (centres undefined), for which the CC50 in [1] was 12.7 µM (active).
In the case of `C=CCn1c(C)cc(C(=O)CSc2nc(O)c3ccccc3n2)c1C`, the concentration at half-maximal activity (AC50) in experiment [2] is 2.6 µM (active).
Take `COc1ccc(OCC(=O)Nc2ccccc2N2CCCCC2)cc1`: the AC50 in [3] was 33.4 µM (active). Also, the IC50 in [4] is > 80 µM (inactive).
On to `CCCCN1C(=O)/C(=C/C=C2\Oc3ccccc3N2CC)SC1=S`, for which, in experiment [2], the AC50 was 171 µM (active). Moreover, the half-maximal effective concentration (EC50) in [5] is 48.2 µM (active); in [6], > 300 µM (not active).
`COc1ccc([C@H]2[C@H](C(C)=O)N3N=Cc4ccccc4C3C23C(=O)OC(C)(C)OC3=O)cc1` (some centres undefined): in [7], the IC50 is > 64 µM (inactive).
In the case of `COc1cc(C(=O)Nc2ccc3c(c2)CCN3C(C)=O)cc(OC)c1OC`, the IC50 in experiment [4] is > 80 µM (inactive).
Regarding `O=C(Cc1cccs1)Nc1ccc(S(=O)(=O)N2CCCC2)cc1`, the figures for the IC50 in experiment [7] and in experiment [8] were 50 µM (inactive) and 5.04 µM (active), respectively.
For `CCN1C(=O)/C(=C/C=C2\C=CN(CC)c3ccccc32)SC1=S`, the CC50 in the experiment on Vero was > 40 µM (active).
`Cc1ccc(OCc2nnc(-c3ccccn3)[nH]2)cc1`: the IC50 in experiment [7] was > 64 µM (inactive).
Regarding `COCc1nnc(NC(=O)c2ccc(S(=O)(=O)N(C)c3ccccc3)cc2)o1`, the figures for the EC50 in experiment [9] and in experiment [10] were 20.6 µM (active) and 18.3 µM (active), respectively. In addition, the CC50 in experiment [1] is 18.6 µM (active).
As for `O=C1CC(c2cc(Br)ccc2F)c2cc3c(cc2N1)CCC3` (centres undefined), the half-maximal effective concentration (EC50) is 1.48 µM (inconclusive) in experiment [11], 2.01 µM (active) in experiment [12] and 7.6 µM (active) in experiment [13]. Further, in experiment [14], the AC50 is < 0.16 µM (active). Further, the IC50 in experiment [4] was > 80 µM (inactive).
As for `COc1ccc(C(=O)Nc2ccccc2C(=O)NC(C(=O)NCc2ccco2)C(C)C)cc1` (centres undefined), the figures for the EC50 in experiment [9] and in experiment [10] were 4.63 µM (active) and 8.16 µM (active), respectively. Moreover, in experiment [1], the half-maximal cytotoxic concentration (CC50) is 16.9 µM (active).
Consider `Cc1ccc(S(=O)(=O)N2CCCCC2)cc1NC(=O)c1ccc2c(=O)n3c(nc2c1)CCCCC3`, for which the AC50 in [15] is 12.8 µM (active); in [16], 26.8 µM (active); in [17], 12.4 µM (active).
In the case of `Cc1ccc(-n2c(SCC(=O)NCc3ccco3)nc3sc4c(c3c2=O)CC(C)(C)SC4)cc1`, in experiment [1], the CC50 is > 40 µM (active). The AC50 at Cytochrome P450 2C19 was 8.91 µM (inconclusive).
